According to US11542259B2, “Compounds for the treatment of kinase-dependent disorders” (Exelixis, Inc., priority 2018, dated 2023):

Experiments:
[1] = molecular target: Mer (Homo sapiens (Human), UniProt Q12866); assay: Mer autophosphorylation ELISA in transient transfected 293A cells; assay type: cell-based; details: cellular, MERTK transfected 293A cells
How it was run: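 293A cells transiently transfected with human MERTK DNA, then treated 1 h with 8-point compound dilutions in serum-free medium (0.3% DMSO). Phospho-Mer in lysates quantified by sandwich ELISA against phospho-Mer standard; normalised to DMSO (100%) and reference inhibitor (0%), IC50 from 4-parameter logistic fit.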

[2] = molecular target: Met (Homo sapiens (Human), UniProt P08581); assay: Met autophosphorylation ELISA in PC-3 cells; assay type: cell-based; details: cellular, HGF stimulated, read-out: c-Met IC50
Chain of Met (P08581 25-1390): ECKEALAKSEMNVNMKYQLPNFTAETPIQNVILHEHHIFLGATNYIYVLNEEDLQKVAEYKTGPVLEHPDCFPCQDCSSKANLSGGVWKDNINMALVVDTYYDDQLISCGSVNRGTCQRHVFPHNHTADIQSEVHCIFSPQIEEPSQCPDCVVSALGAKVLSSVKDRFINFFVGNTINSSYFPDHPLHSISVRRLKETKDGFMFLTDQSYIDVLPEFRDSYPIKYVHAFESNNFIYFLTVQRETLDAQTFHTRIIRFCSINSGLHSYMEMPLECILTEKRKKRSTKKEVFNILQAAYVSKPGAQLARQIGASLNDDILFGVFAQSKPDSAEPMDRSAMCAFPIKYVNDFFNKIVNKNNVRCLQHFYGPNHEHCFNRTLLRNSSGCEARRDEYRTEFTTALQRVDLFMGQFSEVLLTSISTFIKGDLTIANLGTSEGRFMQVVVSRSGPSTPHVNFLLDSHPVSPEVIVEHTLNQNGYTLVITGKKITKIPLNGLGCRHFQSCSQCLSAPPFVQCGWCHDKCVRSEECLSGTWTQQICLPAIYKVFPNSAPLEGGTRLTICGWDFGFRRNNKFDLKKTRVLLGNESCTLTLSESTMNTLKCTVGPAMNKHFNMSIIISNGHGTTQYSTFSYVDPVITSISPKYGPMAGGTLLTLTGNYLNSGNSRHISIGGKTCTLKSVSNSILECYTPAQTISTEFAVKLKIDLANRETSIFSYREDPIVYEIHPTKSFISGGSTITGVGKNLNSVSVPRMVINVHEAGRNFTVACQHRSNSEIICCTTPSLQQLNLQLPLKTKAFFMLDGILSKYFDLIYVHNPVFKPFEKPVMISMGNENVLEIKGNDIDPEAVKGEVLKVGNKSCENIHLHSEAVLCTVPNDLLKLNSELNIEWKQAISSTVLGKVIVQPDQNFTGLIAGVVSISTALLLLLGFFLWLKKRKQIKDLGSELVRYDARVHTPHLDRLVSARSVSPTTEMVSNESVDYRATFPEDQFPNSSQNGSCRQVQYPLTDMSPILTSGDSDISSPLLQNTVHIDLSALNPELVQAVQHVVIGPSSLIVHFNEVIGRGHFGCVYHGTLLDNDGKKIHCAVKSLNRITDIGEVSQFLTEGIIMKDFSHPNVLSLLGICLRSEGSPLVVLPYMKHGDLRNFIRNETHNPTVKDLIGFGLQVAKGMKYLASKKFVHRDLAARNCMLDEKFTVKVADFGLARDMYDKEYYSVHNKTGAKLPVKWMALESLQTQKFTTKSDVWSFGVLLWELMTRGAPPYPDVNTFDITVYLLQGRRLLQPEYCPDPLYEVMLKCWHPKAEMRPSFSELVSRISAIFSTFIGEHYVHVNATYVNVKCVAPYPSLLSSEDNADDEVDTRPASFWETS
How it was run: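 Phospho-Met (panTyr) sandwich ELISA on lysates of PC-3 cells given 100 ng/mL HGF for 10 min after 1 h compound exposure (8-point curve, 0.3% DMSO) following 3 h serum starvation. Normalised to HGF-stimulated DMSO and reference-inhibitor wells; 4-parameter logistic IC50.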

[3] = molecular target: Human Axl (residues H473-A894 with Q764R) (Homo sapiens (Human), UniProt P30530, Q764R); assay: Human AXL kinase assay (33P radiometric, KinaseProfiler); assay type: biochemical; details: 10 μM ATP
Chain of Human Axl (residues H473-A894 with Q764R) (P30530 473-894 Q764R): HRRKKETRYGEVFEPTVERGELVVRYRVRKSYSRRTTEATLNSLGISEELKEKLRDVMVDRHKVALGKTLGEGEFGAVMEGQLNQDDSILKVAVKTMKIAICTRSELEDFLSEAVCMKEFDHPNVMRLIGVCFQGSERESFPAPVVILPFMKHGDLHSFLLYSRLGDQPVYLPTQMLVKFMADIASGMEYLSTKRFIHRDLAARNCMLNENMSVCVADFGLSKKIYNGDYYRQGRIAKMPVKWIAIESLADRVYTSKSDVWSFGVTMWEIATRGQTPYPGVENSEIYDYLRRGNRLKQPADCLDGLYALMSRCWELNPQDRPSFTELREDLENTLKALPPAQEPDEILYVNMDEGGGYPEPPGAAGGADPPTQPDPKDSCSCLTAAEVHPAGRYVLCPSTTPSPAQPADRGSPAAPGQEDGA

[4] = molecular target: Human Met (residues R974-S1390 with A1209G and V1290L) (Homo sapiens, UniProt P08581); assay: Human Met kinase assay (33P radiometric, KinaseProfiler); assay type: biochemical; details: 10 μM ATP, read-out: c-Met IC50

Chain of Mer (Q12866 21-999): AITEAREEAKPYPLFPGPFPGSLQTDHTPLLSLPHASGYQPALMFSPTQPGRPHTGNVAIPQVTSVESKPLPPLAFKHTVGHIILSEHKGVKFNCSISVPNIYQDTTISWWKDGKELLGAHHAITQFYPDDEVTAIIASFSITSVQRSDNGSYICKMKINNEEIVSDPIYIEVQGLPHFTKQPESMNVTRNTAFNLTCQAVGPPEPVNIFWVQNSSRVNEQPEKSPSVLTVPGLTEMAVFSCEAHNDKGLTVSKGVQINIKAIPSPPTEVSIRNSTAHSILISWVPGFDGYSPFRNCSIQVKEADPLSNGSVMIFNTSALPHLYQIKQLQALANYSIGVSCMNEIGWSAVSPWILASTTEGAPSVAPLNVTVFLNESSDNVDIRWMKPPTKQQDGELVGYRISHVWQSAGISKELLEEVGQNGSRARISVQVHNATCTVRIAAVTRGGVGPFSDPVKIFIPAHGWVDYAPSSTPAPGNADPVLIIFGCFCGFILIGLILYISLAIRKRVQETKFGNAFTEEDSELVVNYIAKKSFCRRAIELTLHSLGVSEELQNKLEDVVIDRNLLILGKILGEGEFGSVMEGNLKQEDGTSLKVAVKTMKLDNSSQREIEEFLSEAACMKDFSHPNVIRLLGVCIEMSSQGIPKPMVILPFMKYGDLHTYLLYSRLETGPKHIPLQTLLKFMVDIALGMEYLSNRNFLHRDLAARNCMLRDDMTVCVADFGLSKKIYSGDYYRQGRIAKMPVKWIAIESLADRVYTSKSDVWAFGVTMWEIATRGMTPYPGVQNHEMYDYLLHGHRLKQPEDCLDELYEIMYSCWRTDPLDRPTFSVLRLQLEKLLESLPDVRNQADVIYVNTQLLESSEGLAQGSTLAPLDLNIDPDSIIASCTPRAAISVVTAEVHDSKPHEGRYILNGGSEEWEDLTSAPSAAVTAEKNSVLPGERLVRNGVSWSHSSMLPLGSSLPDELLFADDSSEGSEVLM

Structure (SMILES) | IC50 [1] | IC50 [2] | IC50 [3] | IC50 [4]
CNC(=O)c1cc2c(Oc3ccc(NC(=O)C4(C(=O)Nc5ccc(F)cc5)CC4)cc3Cl)ccnc2cc1OC [Compound 134, 1-N′-[3-chloro-4-[7-methoxy-6-(methylcarbamoyl)quinolin-4-yl]oxyphenyl]-1-N-(4-fluorophenyl)cyclopropane-1,1-dicarboxamide] | ≤ 10 nM | ≤ 10 nM | ≤ 10 nM | ≤ 10 nM
COc1cc2nccc(Oc3ccc(NC(=O)C4(C(=O)Nc5ccc(F)cc5)CC4)cc3)c2cc1S(N)(=O)=O [Compound 206, 1-N′-(4-Fluorophenyl)-1-N-[4-(7-methoxy-6-sulfamoylquinolin-4-yl)oxyphenyl]cyclopropane-1,1-dicarboxamide] | 10 to 100 nM | ≤ 10 nM | ≤ 10 nM | ≤ 10 nM
COc1cc2nccc(Oc3ccc(NC(=O)C4(C(=O)Nc5ccc(F)cc5)CC4)cc3F)c2cc1C(N)=O [Compound 133, 1-N′-[4-(6-carbamoyl-7-methoxyquinolin-4-yl)oxy-3-fluorophenyl]-1-N-(4-fluorophenyl)cyclopropane-1,1-dicarboxamide] | ≤ 10 nM | ≤ 10 nM | ≤ 10 nM | ≤ 10 nM
COc1cc2nccc(Oc3ccc(NC(=O)C4(C(=O)Nc5ccc(F)cc5)CC4)cc3)c2cc1-c1nnco1 [Compound 220, 1-N′-(4-Fluorophenyl)-1-N-[4-[7-methoxy-6-(1,3,4-oxadiazol-2-yl)quinolin-4-yl]oxyphenyl]cyclopropane-1,1-dicarboxamide] | ≤ 10 nM | 10 to 100 nM | ≤ 10 nM | ≤ 10 nM
COc1cc2nccc(Oc3ccc(NC(=O)C4(C(=O)Nc5ccc(F)cc5)CC4)cc3Cl)c2cc1C(N)=O [Compound 132, 1-N′-[4-(6-carbamoyl-7-methoxyquinolin-4-yl)oxy-3-chlorophenyl]-1-N-(4-fluorophenyl)cyclopropane-1,1-dicarboxamide] | ≤ 10 nM | ≤ 10 nM | ≤ 10 nM | ≤ 10 nM
NC(=O)c1ccc2c(Oc3ccc(NC(=O)C4(C(=O)Nc5ccc(F)cc5)CC4)cc3)ccnc2c1 [Compound 164, 1-N-[4-(7-carbamoylquinolin-4-yl)oxyphenyl]-1-N′-(4-fluorophenyl)cyclopropane-1,1-dicarboxamide] | 10 to 100 nM | ≤ 10 nM | ≤ 10 nM | ≤ 10 nM
NC(=O)c1cc2c(Oc3ccc(NC(=O)C4(C(=O)Nc5ccc(F)cc5)CC4)cc3)ccnc2cc1OCCCN1CCOCC1 [Compound 98, 1-N-[4-[6-carbamoyl-7-(3-morpholin-4-ylpropoxy)quinolin-4-yl]oxyphenyl]-1-N′-(4-fluorophenyl)cyclopropane-1,1-dicarboxamide] | 10 to 100 nM | ≤ 10 nM | ≤ 10 nM | ≤ 10 nM
CNC(=O)c1cc2c(Oc3ccc(NC(=O)C4(C(=O)Nc5ccc(F)cc5)CC4)cc3F)ccnc2cc1OC [Compound 135, 1-N′-[3-fluoro-4-[7-methoxy-6-(methylcarbamoyl)quinolin-4-yl]oxyphenyl]-1-N-(4-fluorophenyl)cyclopropane-1,1-dicarboxamide] | ≤ 10 nM | ≤ 10 nM | ≤ 10 nM | ≤ 10 nM
COc1cc2nccc(Oc3ccc(NC(=O)C4(C(=O)Nc5ccc(F)cc5)CC4)cc3)c2cc1-c1cnn(C)c1 [Compound 182, 1-N′-(4-fluorophenyl)-1-N-[4-[7-methoxy-6-(1-methylpyrazol-4-yl)quinolin-4-yl]oxyphenyl]cyclopropane-1,1-dicarboxamide] | ≤ 10 nM | 10 to 100 nM | 10 to 100 nM | ≤ 10 nM
CNC(=O)c1ccc2c(Oc3ccc(NC(=O)C4(C(=O)Nc5ccc(F)cc5)CC4)cc3)ccnc2c1 [Compound 165, 1-N′-(4-fluorophenyl)-1-N-[4-[7-(methylcarbamoyl)quinolin-4-yl]oxyphenyl]cyclopropane-1,1-dicarboxamide] | 10 to 100 nM | ≤ 10 nM | ≤ 10 nM | ≤ 10 nM
